# Test results taken from patent publication US8192962B2, “Processes for detecting toxic substances” (Daikin Industries, Ltd., priority 2001, dated 2012).
# System: Stress protein genes
# Assay: DNA chip mRNA expression in yeast, stress protein genes (Table 6)
# Format: cell-based, Saccharomyces cerevisiae S288C
# How it was run: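 Measured as treated-to-untreated fluorescence ratio on a full-genome yeast DNA chip. Cells (S288C, YPD, 25° C.) were exposed in log phase for two hours to one chemical, dosed to curb growth without killing.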
smiles,measurement,setting,value
"[Cl][Hg][Cl] [(3), HgCl2]",The level of expressed mRNA in the presence of chemical substance/The level of expressed mRNA in the absence of chemical substance,yeast gene YAL005C,7.0
same,The level of expressed mRNA in the presence of chemical substance/The level of expressed mRNA in the absence of chemical substance,yeast gene YAL015C,1.7
same,The level of expressed mRNA in the presence of chemical substance/The level of expressed mRNA in the absence of chemical substance,yeast gene YBL075C,3.1
same,The level of expressed mRNA in the presence of chemical substance/The level of expressed mRNA in the absence of chemical substance,yeast gene YBL093C,0.4
same,The level of expressed mRNA in the presence of chemical substance/The level of expressed mRNA in the absence of chemical substance,yeast gene YBR044C,0.7
same,The level of expressed mRNA in the presence of chemical substance/The level of expressed mRNA in the absence of chemical substance,yeast gene YBR054W,5.4
same,The level of expressed mRNA in the presence of chemical substance/The level of expressed mRNA in the absence of chemical substance,yeast gene YBR067C,2.8
same,The level of expressed mRNA in the presence of chemical substance/The level of expressed mRNA in the absence of chemical substance,yeast gene YBR072W,18.4
same,The level of expressed mRNA in the presence of chemical substance/The level of expressed mRNA in the absence of chemical substance,yeast gene YBR126C,5.6
same,The level of expressed mRNA in the presence of chemical substance/The level of expressed mRNA in the absence of chemical substance,yeast gene YBR169C,3.9
same,The level of expressed mRNA in the presence of chemical substance/The level of expressed mRNA in the absence of chemical substance,yeast gene YCL035C,1.5
same,The level of expressed mRNA in the presence of chemical substance/The level of expressed mRNA in the absence of chemical substance,yeast gene YCR021C,4.2
same,The level of expressed mRNA in the presence of chemical substance/The level of expressed mRNA in the absence of chemical substance,yeast gene YCR060W,0.9
same,The level of expressed mRNA in the presence of chemical substance/The level of expressed mRNA in the absence of chemical substance,yeast gene YCR083W,1.5
same,The level of expressed mRNA in the presence of chemical substance/The level of expressed mRNA in the absence of chemical substance,yeast gene YDL022W,6.9
same,The level of expressed mRNA in the presence of chemical substance/The level of expressed mRNA in the absence of chemical substance,yeast gene YDL025C,3.5
same,The level of expressed mRNA in the presence of chemical substance/The level of expressed mRNA in the absence of chemical substance,yeast gene YDR033W,4.6
same,The level of expressed mRNA in the presence of chemical substance/The level of expressed mRNA in the absence of chemical substance,yeast gene YDR077W,3.5
same,The level of expressed mRNA in the presence of chemical substance/The level of expressed mRNA in the absence of chemical substance,yeast gene YDR098C,1.0
same,The level of expressed mRNA in the presence of chemical substance/The level of expressed mRNA in the absence of chemical substance,yeast gene YDR155C,3.2
same,The level of expressed mRNA in the presence of chemical substance/The level of expressed mRNA in the absence of chemical substance,yeast gene YDR258C,2.8
same,The level of expressed mRNA in the presence of chemical substance/The level of expressed mRNA in the absence of chemical substance,yeast gene YDR293C,1.2
same,The level of expressed mRNA in the presence of chemical substance/The level of expressed mRNA in the absence of chemical substance,yeast gene YDR436W,1.1
same,The level of expressed mRNA in the presence of chemical substance/The level of expressed mRNA in the absence of chemical substance,yeast gene YDR513W,2.3
same,The level of expressed mRNA in the presence of chemical substance/The level of expressed mRNA in the absence of chemical substance,yeast gene YDR519W,1.7
same,The level of expressed mRNA in the presence of chemical substance/The level of expressed mRNA in the absence of chemical substance,yeast gene YEL030W,1.9
same,The level of expressed mRNA in the presence of chemical substance/The level of expressed mRNA in the absence of chemical substance,yeast gene YEL039C,1.3
same,The level of expressed mRNA in the presence of chemical substance/The level of expressed mRNA in the absence of chemical substance,yeast gene YER042W,3.1
same,The level of expressed mRNA in the presence of chemical substance/The level of expressed mRNA in the absence of chemical substance,yeast gene YER057C,3.0
same,The level of expressed mRNA in the presence of chemical substance/The level of expressed mRNA in the absence of chemical substance,yeast gene YER103W,5.2
same,The level of expressed mRNA in the presence of chemical substance/The level of expressed mRNA in the absence of chemical substance,yeast gene YER125W,1.5
same,The level of expressed mRNA in the presence of chemical substance/The level of expressed mRNA in the absence of chemical substance,yeast gene YFL014W,5.7
same,The level of expressed mRNA in the presence of chemical substance/The level of expressed mRNA in the absence of chemical substance,yeast gene YFL016C,1.6
same,The level of expressed mRNA in the presence of chemical substance/The level of expressed mRNA in the absence of chemical substance,yeast gene YFL020C,1.9
same,The level of expressed mRNA in the presence of chemical substance/The level of expressed mRNA in the absence of chemical substance,yeast gene YFR052W,1.3
same,The level of expressed mRNA in the presence of chemical substance/The level of expressed mRNA in the absence of chemical substance,yeast gene YGL073W,0.9
same,The level of expressed mRNA in the presence of chemical substance/The level of expressed mRNA in the absence of chemical substance,yeast gene YGL115W,1.2
same,The level of expressed mRNA in the presence of chemical substance/The level of expressed mRNA in the absence of chemical substance,yeast gene YGL181W,1.2
same,The level of expressed mRNA in the presence of chemical substance/The level of expressed mRNA in the absence of chemical substance,yeast gene YGR088W,7.7
same,The level of expressed mRNA in the presence of chemical substance/The level of expressed mRNA in the absence of chemical substance,yeast gene YHL028W,1.4
same,The level of expressed mRNA in the presence of chemical substance/The level of expressed mRNA in the absence of chemical substance,yeast gene YHL046C,2.1
same,The level of expressed mRNA in the presence of chemical substance/The level of expressed mRNA in the absence of chemical substance,yeast gene YHR030C,0.6
same,The level of expressed mRNA in the presence of chemical substance/The level of expressed mRNA in the absence of chemical substance,yeast gene YHR057C,0.7
same,The level of expressed mRNA in the presence of chemical substance/The level of expressed mRNA in the absence of chemical substance,yeast gene YHR104W,15.7
same,The level of expressed mRNA in the presence of chemical substance/The level of expressed mRNA in the absence of chemical substance,yeast gene YIL011W,3.9
same,The level of expressed mRNA in the presence of chemical substance/The level of expressed mRNA in the absence of chemical substance,yeast gene YIL033C,3.3
same,The level of expressed mRNA in the presence of chemical substance/The level of expressed mRNA in the absence of chemical substance,yeast gene YIR037W,2.0
same,The level of expressed mRNA in the presence of chemical substance/The level of expressed mRNA in the absence of chemical substance,yeast gene YIR038C,4.6
same,The level of expressed mRNA in the presence of chemical substance/The level of expressed mRNA in the absence of chemical substance,yeast gene YJL128C,0.4
same,The level of expressed mRNA in the presence of chemical substance/The level of expressed mRNA in the absence of chemical substance,yeast gene YJL158C,2.8
same,The level of expressed mRNA in the presence of chemical substance/The level of expressed mRNA in the absence of chemical substance,yeast gene YJL159W,2.8
same,The level of expressed mRNA in the presence of chemical substance/The level of expressed mRNA in the absence of chemical substance,yeast gene YJL165C,1.3
same,The level of expressed mRNA in the presence of chemical substance/The level of expressed mRNA in the absence of chemical substance,yeast gene YJR045C,3.9
same,The level of expressed mRNA in the presence of chemical substance/The level of expressed mRNA in the absence of chemical substance,yeast gene YJR090C,0.6
same,The level of expressed mRNA in the presence of chemical substance/The level of expressed mRNA in the absence of chemical substance,yeast gene YKL161C,0.9
same,The level of expressed mRNA in the presence of chemical substance/The level of expressed mRNA in the absence of chemical substance,yeast gene YKL163W,3.4
same,The level of expressed mRNA in the presence of chemical substance/The level of expressed mRNA in the absence of chemical substance,yeast gene YKL164C,2.5
same,The level of expressed mRNA in the presence of chemical substance/The level of expressed mRNA in the absence of chemical substance,yeast gene YKL210W,2.7
same,The level of expressed mRNA in the presence of chemical substance/The level of expressed mRNA in the absence of chemical substance,yeast gene YKR053C,1.0
same,The level of expressed mRNA in the presence of chemical substance/The level of expressed mRNA in the absence of chemical substance,yeast gene YLL024C,5.3
same,The level of expressed mRNA in the presence of chemical substance/The level of expressed mRNA in the absence of chemical substance,yeast gene YLL026W,7.7
same,The level of expressed mRNA in the presence of chemical substance/The level of expressed mRNA in the absence of chemical substance,yeast gene YLL039C,1.7
same,The level of expressed mRNA in the presence of chemical substance/The level of expressed mRNA in the absence of chemical substance,yeast gene YLL060C,2.3
same,The level of expressed mRNA in the presence of chemical substance/The level of expressed mRNA in the absence of chemical substance,yeast gene YLR006C,0.9
same,The level of expressed mRNA in the presence of chemical substance/The level of expressed mRNA in the absence of chemical substance,yeast gene YLR109W,6.0
same,The level of expressed mRNA in the presence of chemical substance/The level of expressed mRNA in the absence of chemical substance,yeast gene YLR259C,3.1
same,The level of expressed mRNA in the presence of chemical substance/The level of expressed mRNA in the absence of chemical substance,yeast gene YML007W,0.9
same,The level of expressed mRNA in the presence of chemical substance/The level of expressed mRNA in the absence of chemical substance,yeast gene YML070W,2.5
same,The level of expressed mRNA in the presence of chemical substance/The level of expressed mRNA in the absence of chemical substance,yeast gene YMR021C,0.9
same,The level of expressed mRNA in the presence of chemical substance/The level of expressed mRNA in the absence of chemical substance,yeast gene YMR173W,3.0
same,The level of expressed mRNA in the presence of chemical substance/The level of expressed mRNA in the absence of chemical substance,yeast gene YMR186W,2.0
same,The level of expressed mRNA in the presence of chemical substance/The level of expressed mRNA in the absence of chemical substance,yeast gene YNL064C,1.8
same,The level of expressed mRNA in the presence of chemical substance/The level of expressed mRNA in the absence of chemical substance,yeast gene YNL160W,10.6
same,The level of expressed mRNA in the presence of chemical substance/The level of expressed mRNA in the absence of chemical substance,yeast gene YNL241C,4.3
same,The level of expressed mRNA in the presence of chemical substance/The level of expressed mRNA in the absence of chemical substance,yeast gene YNR076W,2.5
same,The level of expressed mRNA in the presence of chemical substance/The level of expressed mRNA in the absence of chemical substance,yeast gene YOL064C,1.1
same,The level of expressed mRNA in the presence of chemical substance/The level of expressed mRNA in the absence of chemical substance,yeast gene YOL161C,2.4
same,The level of expressed mRNA in the presence of chemical substance/The level of expressed mRNA in the absence of chemical substance,yeast gene YOR008C,1.4
same,The level of expressed mRNA in the presence of chemical substance/The level of expressed mRNA in the absence of chemical substance,yeast gene YOR009W,3.2
same,The level of expressed mRNA in the presence of chemical substance/The level of expressed mRNA in the absence of chemical substance,yeast gene YOR010C,3.2
same,The level of expressed mRNA in the presence of chemical substance/The level of expressed mRNA in the absence of chemical substance,yeast gene YOR027W,4.4
same,The level of expressed mRNA in the presence of chemical substance/The level of expressed mRNA in the absence of chemical substance,yeast gene YOR208W,1.2
same,The level of expressed mRNA in the presence of chemical substance/The level of expressed mRNA in the absence of chemical substance,yeast gene YPL059W,2.6
same,The level of expressed mRNA in the presence of chemical substance/The level of expressed mRNA in the absence of chemical substance,yeast gene YPL106C,2.4
same,The level of expressed mRNA in the presence of chemical substance/The level of expressed mRNA in the absence of chemical substance,yeast gene YPL140C,0.9
same,The level of expressed mRNA in the presence of chemical substance/The level of expressed mRNA in the absence of chemical substance,yeast gene YPL194W,0.4
same,The level of expressed mRNA in the presence of chemical substance/The level of expressed mRNA in the absence of chemical substance,yeast gene YPL223C,1.2
same,The level of expressed mRNA in the presence of chemical substance/The level of expressed mRNA in the absence of chemical substance,yeast gene YPL240C,2.4
same,The level of expressed mRNA in the presence of chemical substance/The level of expressed mRNA in the absence of chemical substance,yeast gene YPR005C,1.5
same,The level of expressed mRNA in the presence of chemical substance/The level of expressed mRNA in the absence of chemical substance,yeast gene YPR026W,5.0
